Source: patent publication US12139729B2, “Neurodegenerative disorders” (priority 2013, dated 2024)
Residues, ends and D or L forms follow the SMILES beside them. No end group written: not given here.

Experiments:
Aβ42 = assay: ELISA detection of Aβ42 in cell culture media; type: cell-based; settings: 1 hour
Procedure: After 1 hour of treatment, the culture media was collected and diluted to 1:100, using culture media as diluent. Four repeats of each diluted sample were then placed in the plate provided by the ELISA detection kit, from AnaSpec (Fremont, CA, USA). The detection was then carried out following the manufacturer's protocol. Briefly, the sample was incubated for 4 h in presence of 50 μl of detection antibody. The plate was then washed seven times with the washing solution, the samples were then incubated with the 3,3′,5,5′-Tetramethylbenzidine (TMB) provided with the kit for 15 min. after the sample revelation the reaction was stopped with the stop solution and the optical density was read at 450 nm.
Accordingly, using immunodetection, the inventors have determined (i) APP levels and (ii) release of amyloid following administration of T30 (5 uM) and NBP14 (0.5 μM).

[1] = biological target: allosteric site on the α7 nicotinic-receptor (Rattus norvegicus, UniProt Q05941); assay: Binding affinity for the allosteric site of the α7 nicotinic-receptor, using tests for viability
[2] = tested on: cortical networks in rat brain slices; assay: Voltage-sensitive dye imaging (VSDI) of thalamocortical brain slices; type: cell-based, rat (Wistar); settings: for T30-induced increase of rise-phase slope (velocity of propagation): n=3
From the text: Using this technique the inventors can obtain comprehensive sets of data on neuronal population activity such as (a) the intensity of the response in any given area, from which (b) the spread of elicited neuronal assemblies can be measured, and from this parameter (c) the velocity of propagation of the activity wave-front from the point of initiation (d) measured as the slope of the spread. Each of these parameters have been measured independently for two experiments carried out so far: i) an investigation of the effects induced by increasing concentrations (0.5, 0.75, 1 & 5 μM) of T30 on cortical population activity and responsiveness, and 2) assessing the antagonistic effects of NBP-14 on a single, relatively high (1 uM), T30 concentration. • Technique used: voltage-sensitive dye imaging (Di-4-ANEPPS) of thalamocortical (TC) p14 rat (Wistar) brain slices. • Stimulation paradigm: 40 Hz (consistent with thalamo-cortical recurrent stimulation) paired pulse stimulation. • Perfusion paradigm: epochs carried out in two phases—for every drug perfusion (say: control, 0.1 uM T30 etc.), the new perfusion was applied and left to perfuse for 15 minutes before starting the recording period (15 minutes also), such that the drug had time to reach its actual concentration and induce its concentration-dependent effects once recording. Meaning one perfusion epoch lasted 30 minutes, with the recording only taking in account the last 15 minutes of its respective perfusion epoch. Detailed Methods Brain Slice Preparation
Male Wistar rats (14-17 day old; 15 individual animals in total) were anaesthetised using isoflurane: 10 mL 100% w/w isoflurane was applied to the cotton bed at the bottom of an anaesthesia chamber (glass box 20×15×15 cm) where rats were then placed for ˜45 seconds until onset of anaesthesia. The hind paw of each anaesthetised rat was pinched to check for appropriate depth of anaesthesia. Once anaesthesia was confirmed, rats were quickly decapitated before immersing the brain in oxygenated ice-cold artificial cerebrospinal fluid (‘slicing’ aCSF in mmol: 120 NaCl, 5 KCl, 20 NaHCO3, 2.4 CaCl2), 2 MgSO4, 1.2 KH2PO4, 10 glucose, 6.7 HEPES salt and 3.3 HEPES acid; pH: 7.1) for 7-8 minutes, the time taken to cut the brain into slices. Para-saggital sections (400 μm thick) were cut from a block of brain containing both Thalamus (VPN) and primary somato-sensory cortex (barrel field) using a Vibratome (Leica VT1000S) and transferred to a bubbler pot containing aCSF at room temperature (‘recording’ aCSF in mmol: 124 NaCl, 3.7 KCl, 26 NaHCO3, 2 CaCl2, 1.3 MgSO4, 1.3 KH2PO4 and 10 glucose; […]), which was identical to that which was used during electrophysiological recordings and VSDI. Slices were left in oxygenated (95% O2-5% CO2) ‘recording’ aCSF to recuperate for at least 1 hour before VSD staining.
Slices were placed in a dark, high humidity chamber filled with aCSF bubbling with 95% O2-5% CO2. The dye solution (4% 0.2 mM styryl dye pyridinium 4-[2-[6-(dibutylamino)-2-naphthalenyl]-ethenyl]-1-(3-sulfopropyl)hydroxide (Di-4-ANEPPS, Invitrogen, Paisley, UK) (Tominaga et al., 2000) in aCSF 46%, fetal bovine serum 46%, DMSO 3.5% and cremophore EL 0.4%) was then applied to the slices as previously described (Badin et al., 2013). When starting VSD recordings, slices were placed in the recording bath on a small piece of filter paper to keep slice alive and was weighed down appropriately using a home-made plastic grid placed atop the slice. Because of the fluorescent VSD, all of the handling of slices during and after staining with Di-4-ANEPPS was carried out in almost complete darkness in order to keep the detrimental effects of photo-toxicity and bleaching to a minimum. VPN (where stimulating electrodes were placed) was identified with respect to distance from the tip of the hippocampus and to the side of the internal capsule. […]

Sequence of allosteric site on the α7 nicotinic-receptor (Q05941 23-502): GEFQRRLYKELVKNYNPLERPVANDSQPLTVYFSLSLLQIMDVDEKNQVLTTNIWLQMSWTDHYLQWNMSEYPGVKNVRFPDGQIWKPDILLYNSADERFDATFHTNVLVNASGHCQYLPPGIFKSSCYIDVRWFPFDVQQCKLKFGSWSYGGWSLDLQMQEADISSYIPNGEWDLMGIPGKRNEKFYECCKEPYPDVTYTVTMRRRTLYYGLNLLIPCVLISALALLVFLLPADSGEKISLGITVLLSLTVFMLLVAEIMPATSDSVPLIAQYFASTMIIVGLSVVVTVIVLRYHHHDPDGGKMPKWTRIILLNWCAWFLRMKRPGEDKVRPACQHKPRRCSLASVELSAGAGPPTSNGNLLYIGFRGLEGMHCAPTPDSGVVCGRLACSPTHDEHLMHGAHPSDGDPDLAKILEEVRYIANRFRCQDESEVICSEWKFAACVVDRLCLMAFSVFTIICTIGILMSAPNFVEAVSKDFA

| Compound | release of Aβ42 compared to control (Aβ42; T30 (5 uM)) | binding affinity for the allosteric site on the α7 nicotinic-receptor [1] [nM] | maximum decrease in propagation speed (slope of the rise phase) ([2]; 5 μM T30) [fold] | spread of cortical assemblies ([2]; T30 0.5, 0.75, 1 μM, affected only at 5 uM) | intensity of fluorescence given off by active pixels ([2]; increasing T30 concentration (0.5-5 μM)) | release of Aβ42 in presence of T30 and NBP-14 (Aβ42; T30 (5 uM) + NBP14 (0.5 μM)) | affinity (Table 3 feature) ([1]; ✓ = Dream Drug feature 'Nanomolar affinity') | receptor specificity (Table 3 feature) ([1]; ✓ = Dream Drug feature 'Specific action at α7 receptor') | modulatory effects of NBP-14 on its own [2] | modulatory effects of T30 on neuronal populations under NBP-14 ([2]; 300 nM NBP-14, T30 1000 nM) | T30-induced increase of rise-phase slope (velocity of propagation) ([2]; T30 1 μM + 100 nM NBP-14 perfusion) | T30-induced increase of rise-phase slope (velocity of propagation) ([2]; T30 1 μM + 300 nM NBP-14 perfusion) |
| --- | --- | --- | --- | --- | --- | --- | --- | --- | --- | --- | --- | --- |
| KAEFHRWSSYMVHWKNQFDHYSKQDRCSDL [T30, reference compound] | approximately 175% | 5 | 3.5 | not significantly affected | diminishes |  |  |  |  |  |  |  |
| CSCC[C@@H]1NC(=O)[C@H](Cc2ccc(O)cc2)NC(=O)[C@H](CO)NC(=O)[C@H](CO)NC(=O)[C@H](Cc2c[nH]c3ccccc23)NC(=O)[C@H](CCCNC(=N)N)NC(=O)[C@H](Cc2c[nH]cn2)NC(=O)[C@H](Cc2ccccc2)NC(=O)[C@H](CCC(=O)O)NC(=O)[C@H](C)NC(=O)[C@H](CCCCN)NC(=O)[C@H](Cc2c[nH]c3ccccc23)NC(=O)[C@H](Cc2c[nH]cn2)NC(=O)[C@H](C(C)C)NC1=O [Cyclic T14] (cyclo(AEFHRWSSYMVHWK)) |  |  |  |  |  | close to control | ✓ | ✓ | inert | reduced back to control levels | slowed down | reversed back to baseline levels |
